# Data reported in ChEMBL document CHEMBL6120970, “Discovery and Functional Characterization of a Potent, Selective, and Metabolically Stable PROTAC of the Protein Kinases DYRK1A and DYRK1B” (J Med Chem, 2024).
# The source made the active and inactive calls. No cut-off for these calls is given here.
# Columns and labels:
# [1] = target: T1, Protein cereblon/Dual specificity tyrosine-phosphorylation-regulated kinase 1A (Homo sapiens, UniProt Q13627+Q96SW2); test: Competitive binding affinity to CRBN/DYRK1A (unknown origin) assessed as dissociation constant; format: protein assay
# [2] = target: Protein cereblon/Dual specificity tyrosine-phosphorylation-regulated kinase 1B (Homo sapiens, UniProt Q96SW2+Q9Y463); test: Competitive binding affinity to CRBN/DYRK1B (unknown origin) assessed as dissociation constant; format: protein assay
# [3] = target: T1, Protein cereblon/Dual specificity tyrosine-phosphorylation-regulated kinase 1A; test: PROTAC activity at CRBN/HibiT-tagged DYRK1A in Flp-In-T-REx-293 cells assessed as induction of degradation of DYRK1A by measuring maximum efficacy at 1 uM measured after 24 hrs by NanoBiT luciferase assay relative to control; format: cell-based
# [4] = target: T2, Protein cereblon/Dual specificity tyrosine-phosphorylation-regulated kinase 1B (Homo sapiens) (UniProt Q9Y463+Q96SW2); test: PROTAC activity at CRBN/HibiT-tagged DYRK1B in Flp-In-T-REx-293 cells assessed as induction of degradation of DYRK1B by measuring maximum efficacy at 1 uM measured after 24 hrs by NanoBiT luciferase assay relative to control; format: cell-based
# [5] = target: T1, Protein cereblon/Dual specificity tyrosine-phosphorylation-regulated kinase 1A; test: PROTAC activity at CRBN/HibiT-tagged DYRK1A in Flp-In-T-REx-293 cells assessed as induction of degradation of DYRK1A by measuring maximum efficacy at 0.3 uM measured after 24 hrs by NanoBiT luciferase assay relative to control; format: cell-based
# [6] = target: T2, Protein cereblon/Dual specificity tyrosine-phosphorylation-regulated kinase 1B (Homo sapiens); test: PROTAC activity at CRBN/HibiT-tagged DYRK1B in Flp-In-T-REx-293 cells assessed as induction of degradation of DYRK1B by measuring maximum efficacy at 0.3 uM measured after 24 hrs by NanoBiT luciferase assay relative to control; format: cell-based
# [7] = target: von Hippel-Lindau disease tumor suppressor/Dual specificity tyrosine-phosphorylation-regulated kinase 1A (Homo sapiens, UniProt P40337+Q13627); test: Competitive binding affinity to VHL/DYRK1A (unknown origin) assessed as dissociation constant by competition binding assay; format: protein assay
# [8] = target: von Hippel-Lindau disease tumor suppressor/Dual specificity tyrosine-phosphorylation-regulated kinase 1B (Homo sapiens, UniProt P40337+Q9Y463); test: Competitive binding affinity to VHL/DYRK1B (unknown origin) assessed as dissociation constant; format: protein assay
# [9] = target: von Hippel-Lindau disease tumor suppressor/Dual specificity tyrosine-phosphorylation-regulated kinase 1A (Homo sapiens) (UniProt Q13627+P40337); test: PROTAC activity at VHL/HibiT-tagged DYRK1A in Flp-In-T-REx-293 cells assessed as induction of degradation of DYRK1A by measuring maximum efficacy at 0.3 uM measured after 24 hrs by NanoBiT luciferase assay relative to control; format: cell-based
# [10] = target: von Hippel-Lindau disease tumor suppressor/Dual specificity tyrosine-phosphorylation-regulated kinase 1B (Homo sapiens) (UniProt Q9Y463+P40337); test: PROTAC activity at VHL/HibiT-tagged DYRK1B in Flp-In-T-REx-293 cells assessed as induction of degradation of DYRK1B by measuring maximum efficacy at 0.3 uM measured after 24 hrs by NanoBiT luciferase assay relative to control; format: cell-based
# [11] = target: T1, Protein cereblon/Dual specificity tyrosine-phosphorylation-regulated kinase 1A; test: PROTAC activity at CRBN/HibiT-tagged DYRK1A in Flp-In-T-REx-293 cells assessed as induction of degradation of DYRK1A at 1 uM by measured after 24 hrs by NanoBiT luciferase assay; format: cell-based
# [12] = target: T1, Protein cereblon/Dual specificity tyrosine-phosphorylation-regulated kinase 1A; test: PROTAC activity at CRBN/HibiT-tagged DYRK1A in Flp-In-T-REx-293 cells assessed as induction of degradation of DYRK1A at 100 nM by measured after 24 hrs by NanoBiT luciferase assay; format: cell-based
# [13] = target: T1, Protein cereblon/Dual specificity tyrosine-phosphorylation-regulated kinase 1A; test: PROTAC activity at CRBN/DYRK1A in HEK293 cells expressing GFP-SF3B1 assessed as inhibition of SF3B1 phosphorylation at 10 to 100 nM measured for 24 hrs by Western blot analysis; format: cell-based; conditions: dose 10-100 nM
# [14] = target: T3, Dual specificity tyrosine-phosphorylation-regulated kinase 1A (Homo sapiens, UniProt Q13627); test: Binding affinity to DYRK1A (unknown origin) assessed as dissociation constant
# [15] = target: T3, Dual specificity tyrosine-phosphorylation-regulated kinase 1A; test: Binding affinity to human wild type partial length DYRK1A (H129 to S509 residues) expressed in mammalian expression system at 1 uM by kinome scan assay relative to control
# [16] = target: T4, Serine/threonine-protein kinase haspin (Homo sapiens) (UniProt Q8TF76); test: Binding affinity to human wild type partial length Haspin (I452 to K798 residues) expressed in mammalian expression system at 1 uM by kinome scan assay relative to control
# T4 sequence (whole entry): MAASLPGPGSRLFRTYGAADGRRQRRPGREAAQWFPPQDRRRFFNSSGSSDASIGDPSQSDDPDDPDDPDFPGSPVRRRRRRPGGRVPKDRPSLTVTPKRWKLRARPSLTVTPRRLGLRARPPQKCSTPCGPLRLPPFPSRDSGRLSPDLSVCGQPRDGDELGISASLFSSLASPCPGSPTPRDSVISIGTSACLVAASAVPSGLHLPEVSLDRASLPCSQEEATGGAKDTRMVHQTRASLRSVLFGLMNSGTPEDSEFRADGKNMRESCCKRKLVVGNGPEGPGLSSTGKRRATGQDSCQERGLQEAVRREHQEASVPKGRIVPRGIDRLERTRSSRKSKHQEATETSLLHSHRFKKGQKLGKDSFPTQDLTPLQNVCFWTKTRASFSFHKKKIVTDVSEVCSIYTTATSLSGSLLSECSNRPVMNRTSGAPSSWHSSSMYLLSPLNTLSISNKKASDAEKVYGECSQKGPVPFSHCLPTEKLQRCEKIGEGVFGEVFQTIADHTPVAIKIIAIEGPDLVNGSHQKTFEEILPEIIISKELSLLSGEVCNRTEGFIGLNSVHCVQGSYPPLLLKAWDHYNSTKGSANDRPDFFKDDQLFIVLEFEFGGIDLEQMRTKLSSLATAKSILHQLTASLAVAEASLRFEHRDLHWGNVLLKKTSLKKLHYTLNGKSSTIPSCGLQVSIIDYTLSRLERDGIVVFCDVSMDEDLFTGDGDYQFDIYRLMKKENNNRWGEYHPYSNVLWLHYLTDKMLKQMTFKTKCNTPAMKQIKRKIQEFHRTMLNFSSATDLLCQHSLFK
# [17] = target: Casein kinase I isoform epsilon (Homo sapiens) (UniProt P49674); test: Binding affinity to human wild type full length CSNK1E (M1 to K416 residues) expressed in Bacterial expression system at 1 uM by kinome scan assay relative to control
# [18] = target: Homeodomain-interacting protein kinase 2 (Homo sapiens) (UniProt Q9H2X6); test: Binding affinity to human wild type partial length HIPK2 (M153 to S564 residues) expressed in mammalian expression system at 1 uM by kinome scan assay relative to control
# [19] = target: Dual specificity protein kinase CLK1 (Homo sapiens) (UniProt P49759); test: Binding affinity to human wild type full length CLK1 (M1 to I484 residues) expressed in Bacterial expression system at 1 uM by kinome scan assay relative to control
# [20] = target: Homeodomain-interacting protein kinase 3 (Homo sapiens) (UniProt Q9H422); test: Binding affinity to human wild type partial length HIPK3 (M153 to N562 residues) expressed in mammalian expression system at 1 uM by kinome scan assay relative to control
# [21] = target: Homeodomain-interacting protein kinase 3 (Homo sapiens) (UniProt Q9H422); test: Binding affinity to human wild type full length HIPK3 (M1 to L344 residues) expressed in mammalian expression system at 1 uM by kinome scan assay relative to control
# [22] = target: Protein cereblon/DNA damage-binding protein 1 (Homo sapiens, UniProt Q96SW2); test: Displacement of Cy5-tagged thalidomide-like probe from recombinant CRBN/DDB1 (unknown origin) by competitive binding assay; format: protein assay
Kd [1],Kd [2],Emax [3],Emax [4],Structure (SMILES),also measured
1.4 nM,2.4 nM,–,–,Cc1nc2ccc(-c3ccnc(N)c3)nc2n1-c1ccc(N2CCN(CCOCCNc3cccc4c3C(=O)N(C3CCC(=O)NC3=O)C4=O)CC2)c(F)c1 (stereo not drawn),Emax [5]: 40%; Emax [6]: 0%
2.8 nM,5.1 nM,79%,63%,Cc1nc2ccc(-c3ccnc(N)c3)nc2n1-c1ccc(N2CCN(C(=O)CCCN3CCC(n4cc(CNc5cccc6c5C(=O)N(C5CCC(=O)NC5=O)C6=O)cn4)CC3)CC2)c(F)c1 (stereo not drawn),–
2.3 nM,3.4 nM,–,–,Cc1nc2ccc(-c3ccnc(N)c3)nc2n1-c1ccc(N2CCN(CCOCCOCCOCCNc3cccc4c3C(=O)N(C3CCC(=O)NC3=O)C4=O)CC2)c(F)c1 (stereo not drawn),Emax [5]: 60%; Emax [6]: 28%
3.2 nM,–,27%,0%,Cc1nc2ccc(-c3ccnc(N)c3)nc2n1-c1ccc(N2CCN(CCOCCOCCOCCC(=O)NC3CN(c4ccc5c(c4)C(=O)N(C4CCC(=O)NC4=O)C5=O)C3)CC2)c(F)c1 (stereo not drawn),–
13 nM,43 nM,80%,58%,Cc1nc2ccc(-c3ccnc(N)c3)nc2n1-c1ccc(N2CCN(CCOCCOCCOCCOCCNc3cc4c(cc3F)C(=O)N(C3CCC(=O)NC3=O)C4=O)CC2)c(F)c1 (stereo not drawn),–

# The next lines start with the compound.
Structure (SMILES),Kd [1],Kd [2],Emax [3],Emax [4],also measured
Cc1nc2ccc(-c3ccnc(N)c3)nc2n1-c1ccc(N2CCN(CCOCCOCCOCCC(=O)N3CCN(Cc4ccc(CNc5cccc6c5CN(C5CCC(=O)NC5=O)C6=O)cc4)CC3)CC2)c(F)c1 (stereo not drawn),5.6 nM,16 nM,0%,0%,–
Cc1nc2ccc(-c3ccnc(N)c3)nc2n1-c1ccc(N2CCN(C(=O)CN3CCC(CC(=O)N4CCC(n5cc(CNc6cccc7c6C(=O)N(C6CCC(=O)NC6=O)C7=O)cn5)CC4)CC3)CC2)c(F)c1 (stereo not drawn),0.64 nM,–,78%,65%,–
Cc1nc2ccc(-c3ccnc(N)c3)nc2n1-c1ccc(N2CCN(CCOCCOCCOCCC(=O)N3CCN(c4ccc5c(c4)C(=O)N(C4CCC(=O)NC4=O)C5=O)CC3)CC2)c(F)c1 (stereo not drawn),5.9 nM,–,9%,0%,–
Cc1ncsc1-c1ccc(CNC(=O)[C@@H]2C[C@@H](O)CN2C(=O)[C@@H](NC(=O)CCOCCOCCOCCN2CCN(c3ccc(-n4c(C)nc5ccc(-c6ccnc(N)c6)nc54)cc3F)CC2)C(C)(C)C)cc1,–,–,–,–,Kd [7]: 1.3 nM; Kd [8]: 3.6 nM; Emax [9]: 0%; Emax [10]: 0%
Cc1nc2ccc(-c3ccnc(N)c3)nc2n1-c1ccc(N2CCN(CC#Cc3ccc(N4CCC(C(=O)N5CCC(n6cc(CNc7cccc8c7C(=O)N(C7CCC(=O)N(C)C7=O)C8=O)cn6)CC5)CC4)nc3)CC2)c(F)c1 (stereo not drawn),–,–,–,–,Activity [11]: Active; Compound Showed Modest Degradation; Activity [12]: inactive; Activity [13]: Active; Compound Partially Suppress The Phosphorylation
Cc1nc2ccc(-c3ccnc(N)c3)nc2n1-c1ccc(N2CCN(C)CC2)cc1F,–,–,–,–,Kd [14]: 0.91 nM; Activity [15]: 0%; Activity [16]: 0.2%; Activity [17]: 0.3%; Activity [18]: 0.3%; Activity [19]: 0.5%; Activity [20]: 0.7%; Activity [21]: 0.7%
Cc1ncsc1-c1ccc(CNC(=O)[C@@H]2C[C@@H](O)CN2C(=O)[C@@H](NC(=O)CCOCCOCCOCCOCCN2CCN(c3ccc(-n4c(C)nc5ccc(-c6ccnc(N)c6)nc54)cc3F)CC2)C(C)(C)C)cc1,–,–,–,–,Kd [7]: 1.4 nM; Kd [8]: 6.6 nM; Emax [9]: 0%; Emax [10]: 0%
O=C1CCC(N2C(=O)c3cccc(NCc4cnn(C5CCN(C(=O)C6CCN(c7ccccn7)CC6)CC5)c4)c3C2=O)C(=O)N1 (stereo not drawn),–,–,–,–,IC50 [22]: 13300 nM
Cc1nc2ccc(-c3ccnc(N)c3)nc2n1-c1ccc(N2CCN(C(=O)CCN3CCN(Cc4ccc(CNc5cccc6c5CN(C5CCC(=O)NC5=O)C6=O)cc4)CC3)CC2)c(F)c1 (stereo not drawn),20 nM,47 nM,24%,14%,–
Cc1ncsc1-c1ccc(CNC(=O)[C@@H]2C[C@@H](O)CN2C(=O)[C@@H](NC(=O)CCOCCN2CCN(c3ccc(-n4c(C)nc5ccc(-c6ccnc(N)c6)nc54)cc3F)CC2)C(C)(C)C)cc1,–,–,–,–,Kd [7]: 3.4 nM; Kd [8]: 5.5 nM; Emax [9]: 11%; Emax [10]: 0%
Cc1nc2ccc(-c3ccnc(N)c3)nc2n1-c1ccc(N2CCN(C(=O)CCCCN3CCN(Cc4ccc(CNc5cccc6c5CN(C5CCC(=O)NC5=O)C6=O)cc4)CC3)CC2)c(F)c1 (stereo not drawn),3.3 nM,8.4 nM,63%,38%,–
Cc1ncsc1-c1ccc(CNC(=O)[C@@H]2C[C@@H](O)CN2C(=O)[C@@H](NC(=O)CCOCCOCCN2CCN(c3ccc(-n4c(C)nc5ccc(-c6ccnc(N)c6)nc54)cc3F)CC2)C(C)(C)C)cc1,–,–,–,–,Kd [7]: 2.2 nM; Kd [8]: 6.9 nM; Emax [9]: 5%; Emax [10]: 2%
Cc1nc2ccc(-c3ccnc(N)c3)nc2n1-c1ccc(N2CCN(C(=O)CCCN3CCN(Cc4ccc(CNc5cccc6c5CN(C5CCC(=O)NC5=O)C6=O)cc4)CC3)CC2)c(F)c1 (stereo not drawn),1.7 nM,5.2 nM,75%,54%,–
Cc1nc2ccc(-c3ccnc(N)c3)nc2n1-c1ccc(N2CCN(CCOCCOCCNc3cccc4c3C(=O)N(C3CCC(=O)NC3=O)C4=O)CC2)c(F)c1 (stereo not drawn),1.4 nM,3.5 nM,–,–,Emax [5]: 52%; Emax [6]: 25%
